Earlier results on 2 molecules are cited in patent US20260284079A1, “LIPID PRODRUGS OF ALLOPR[…] USES THEREOF” (Seaport Therapeutics, Inc., priority 2023, published 2026).

The subject of one data set is salivary cortisol levels. The note with it: literature; cited from earlier work.
The conditions of data set [1]: due to extensive first-pass metabolism; cited from earlier work.

`CCNC1=Nc2ccc(Cl)cc2C(C)(c2ccccc2)O1` (centres unmarked) [Etifoxine]: in the data set with salivary cortisol levels, the “blunting of increase in salivary cortisol levels following a TSST” value is given as “does not blunt an increase in salivary cortisol levels”.

Consider `CC(=O)[C@H]1CC[C@H]2[C@@H]3CC[C@H]4C[C@H](O)CC[C@]4(C)[C@H]3CC[C@]12C` [allopregnanolone], for which the oral bioavailability result in data set [1] is listed as “less than 5%”.
